Data reported in US9656945B2, “3-acyl-ingenols II” (LEO LABORATORIES LIMITED, priority 2010, dated 2017).

Experiments:
Assay type in all cases: cell-based
[1] = test system: PMN's (polymorphonuclear leukocytes); assay: Neutrophil oxidative burst assay; details: Leukocyte, 40 min, read-out: Neutrophil oxidative burst Rel EC50 range
Procedure: PMN's (polymorphonuclear leukocytes) were isolated and purified from fresh buffy coats by sequential sedimentation, density centrifugation and lysis of contaminating erythrocytes. Buffy coats were incubated with 2% methocel for 30-45 min to differentially sediment red blood cells. The leukocyte-rich supernatant was transferred to lymphoprep tubes to remove mononuclear cells by density centrifugation (400×g, 30 min). The pellet was resuspended and any remaining erythrocytes lysed using 0.2% NaCl for 30 sec before restoring isotonicity by the addition of 1.2% NaCl. This step was repeated until the cell pellet appears relatively free of red blood cells. Cells were resuspended in DPBS (Dulbecco's Phosphate Buffered Saline) (w.o. Ca^2+, Mg^2+) and the concentration adjusted to 1.4×10^6 cells/ml in HBSS (Hanks Balanced Salt solution) (w Ca^2+, Mg^2+) containing 0.1% BSA (Bovine Serum Albumin) and 5 mM glucose just prior to assay initiation. Titrated reference and test compounds were pre-mixed with HE (Hydroethidine) (10 μM final assay concentration) before addition to 96-well plates containing 2.5×10^5 cells. Following 40 min incubation at RT, changes in the respiratory burst was estimated by measuring fluorescence at 579 nm (excitation: 485 nm) using an Envision plate reader.
Test compound titration curves were fitted to a four-parameter sigmoidal curve after normalizing the effect of the test compound to the effect of the positive control (5×10^−7 M PEP0005). Rel EC50 denotes the concentration of test compound producing an effect that is midway between the fitted top and bottom. Abs EC50 is the concentration of test compound that provokes a response corresponding to 50% of the maximal effect associated with the positive control (5×10^−7 M PEP0005).

[2] = test system: Primary human epidermal keratinocytes, HeKa; assay: HeKa cytokine release (IL-8) assay; details: 6 h, read-out: HeKa cytokine release (IL-8) Rel EC50 range
Procedure: Primary human epidermal keratinocytes, HeKa, were seeded (10.000 cells/well) in 96-well plates the day before the assay. Test compounds were diluted in DMSO (dimethyl sulfoxide) and further diluted in assay medium and pipetted into wells of 96 well-plates containing HeKa cells. The plates were incubated for 6 h at 37° C. in humidified air with 5% CO2. Plates are centrifuged briefly to spin down cells at 4° C., the supernatant was removed and analysed by Meso Scale Discovery (MSD) 4-spot cytokine assay (Pro-inflammatory II Ultra Sensitive kit, MSD, MD, USA). The MSD assay employs a sandwich immunoassay format where capture antibodies were coated in a patterned array on the bottom of the wells of a 4-Spot-Multi-MSD plate. Standard samples were incubated in the MULTI-SPOT plates as well, and the cytokine (IL-8) binds to its corresponding capture antibody spot. The cytokine level was quantitated on a SECTOR™ Imager using a cytokine-specific Detection Antibody labelled with MSD SULFO-TAG™ reagent.
Test compound titration curves were fitted to a four-parameter sigmoidal curve after normalizing the effect of the test compound to the effect of the positive control (1.5×10^−7 M PEP0005). Rel EC50 denotes the concentration of test compound producing an effect that is midway between the fitted top and bottom.

[3] = test system: HeLa cells (ATCC CCL-002); assay: Necrosis assay; details: Homo sapiens, 0.5 h, read-out: HeLa necrosis EC50 range
Procedure: HeLa cells (ATCC CCL-002) were grown in minimal essential medium (Invitrogen catalog no. 42360) containing 10% fetal bovine serum, 100 IU/ml penicillin and 100 μg/ml streptomycin. 4,000-6,000 cells were seeded into 96-well black ViewPlates-plates, clear bottom, (Perkin Elmer) in 100 μl medium and incubated overnight. Compounds were dissolved and pre-diluted in DMSO in 96-well polypropylene plates (Greiner) in a concentration range of 15 μM to 600 μM. At the time of the experiment cell plates were placed on heating blocks at 37° C., medium was removed and 40 μl fresh, pre-warmed medium was added per well. Cells were incubated for 15 min before addition of compounds. In parallel, 3 μl of compounds were diluted with 197 μl growth medium on a Tecan freedom-EVO pipetting station using 250 μl/s pipetting speed, in order to ensure effective mixing of the highly concentrated compound solutions with the aqueous phase. These pre-dilution plates were then equilibrated on heating blocks at 37° C. for 10 min. 80 μl pre-diluted compound were transferred manually to the corresponding wells containing HeLa cells yielding compound concentrations of 10 μM to 400 μM. Control conditions were 1% DMSO in growth medium (100% viability) and 400 μM ingenol mebutate in growth medium (0% viability). Plates were incubated on the heating blocks at 37° C. for 30 min. At the end of the incubation 10 μl PrestoBlue reagent (Invitrogen) were added to each well, plates were sealed with black seal, followed by incubation at 37° C. for 10 min with gentle shaking (150 rpm). Subsequently, plates were placed at room temperature for 20-30 min. Plates were read immediately after on an Envision Fluorescence reader (Perkin Elmer) with excitation at 535 nm and emission at 630 nm. Test compound titration curves were fitted to a four-parameter sigmoidal curve after normalizing the effect of the test compound to the effect of the positive control (4 10^−4 M PEP0005/ingenol mebutate). AbsEC50 denotes the concentration of test compound producing 50% effect.

Compound	EC50 [1]	EC50 [2]	EC50 [3]
CC1=C[C@]23C(=O)[C@@H](C=C(CO)[C@@H](O)[C@]2(O)[C@H]1OC(=O)C1CC1)[C@H]1[C@@H](C[C@H]3C)C1(C)C [Compound 301, Ingenol 3-(cyclopropanecarboxylate)]	20 to 100 nM	> 100 nM	
CC1=C[C@]23C(=O)[C@@H](C=C(CO)[C@@H](O)[C@]2(O)[C@H]1OC(=O)C1CCCCC1)[C@H]1[C@@H](C[C@H]3C)C1(C)C [Compound 302, Ingenol 3-(cyclohexanecarboxylate)]	< 20 nM	20 to 100 nM	150000 to 350000 nM
CC1=C[C@]23C(=O)[C@@H](C=C(CO)[C@@H](O)[C@]2(O)[C@H]1OC(=O)C1CCC1)[C@H]1[C@@H](C[C@H]3C)C1(C)C [Compound 303, Ingenol 3-(cyclobutanecarboxylate)]	< 20 nM	> 100 nM	
CC1=C[C@]23C(=O)[C@@H](C=C(CO)[C@@H](O)[C@]2(O)[C@H]1OC(=O)C1CCCC1)[C@H]1[C@@H](C[C@H]3C)C1(C)C [Compound 304, Ingenol 3-(cyclopentanecarboxylate)]	< 20 nM	20 to 100 nM	
CC1=C[C@]23C(=O)[C@@H](C=C(CO)[C@@H](O)[C@]2(O)[C@H]1OC(=O)C1=CCCCC1)[C@H]1[C@@H](C[C@H]3C)C1(C)C [Compound 305, Ingenol 3-(cyclohexene-1-carboxylate)]	< 20 nM	< 20 nM	
COC(=O)C1(C(=O)O[C@H]2C(C)=C[C@]34C(=O)[C@@H](C=C(CO)[C@@H](O)[C@]23O)[C@H]2[C@@H](C[C@H]4C)C2(C)C)CC1 [Compound 306, Ingenol 3-(1-methoxycarbonyl-cyclopropylcarboxylate)]	20 to 100 nM	> 100 nM	> 350000 nM
CC1=C[C@]23C(=O)[C@@H](C=C(CO)[C@@H](O)[C@]2(O)[C@H]1OC(=O)C12C[C@@H]4CC1C[C@@H](C4)C2)[C@H]1[C@@H](C[C@H]3C)C1(C)C [Compound 307, Ingenol 3-(noradamantane-3-carboxylate)]	< 20 nM	< 20 nM	150000 to 350000 nM
CC1=C[C@]23C(=O)[C@@H](C=C(CO)[C@@H](O)[C@]2(O)[C@H]1OC(=O)C1(C)CCCCC1)[C@H]1[C@@H](C[C@H]3C)C1(C)C [Compound 308, Ingenol 3-(1-methyl-cyclohexanecarboxylate)]	< 20 nM	< 20 nM	< 150000 nM
CC1=C[C@]23C(=O)[C@@H](C=C(CO)[C@@H](O)[C@]2(O)[C@H]1OC(=O)C1(C#N)CCCCC1)[C@H]1[C@@H](C[C@H]3C)C1(C)C [Compound 309, Ingenol 3-(1-cyano-cyclohexanecarboxylate)]	< 20 nM		
CC1=C[C@]23C(=O)[C@@H](C=C(CO)[C@@H](O)[C@]2(O)[C@H]1OC(=O)c1ccccc1C)[C@H]1[C@@H](C[C@H]3C)C1(C)C [Compound 310, Ingenol 3-(2-methyl-benzoate)]	< 20 nM	< 20 nM	
CC1=C[C@]23C(=O)[C@@H](C=C(CO)[C@@H](O)[C@]2(O)[C@H]1OC(=O)c1ccc(F)cc1)[C@H]1[C@@H](C[C@H]3C)C1(C)C [Compound 311, Ingenol 3-(4-fluoro-benzoate)]	< 20 nM	< 20 nM	< 150000 nM
CC1=C[C@]23C(=O)[C@@H](C=C(CO)[C@@H](O)[C@]2(O)[C@H]1OC(=O)c1c(Cl)cccc1Cl)[C@H]1[C@@H](C[C@H]3C)C1(C)C [Compound 317, Ingenol 3-(2,6-dichloro-benzoate)]	20 to 100 nM	< 20 nM	
CC1=C[C@]23C(=O)[C@@H](C=C(CO)[C@@H](O)[C@]2(O)[C@H]1OC(=O)c1c(Cl)cc(Cl)cc1Cl)[C@H]1[C@@H](C[C@H]3C)C1(C)C [Compound 318, Ingenol 3-(2,4,6-trichloro-benzoate)]	20 to 100 nM	< 20 nM	
C=CCOc1cccc(C)c1C(=O)O[C@H]1C(C)=C[C@]23C(=O)[C@@H](C=C(CO)[C@@H](O)[C@]12O)[C@H]1[C@@H](C[C@H]3C)C1(C)C [Compound 326, Ingenol 3-(2-allyloxy-6-methyl-benzoate)]	< 20 nM		< 150000 nM
CC1=C[C@]23C(=O)[C@@H](C=C(CO)[C@@H](O)[C@]2(O)[C@H]1OC(=O)c1c(C)cccc1O)[C@H]1[C@@H](C[C@H]3C)C1(C)C [Compound 327, Ingenol 3-(2-hydroxy-6-methyl-benzoate)]	< 20 nM		150000 to 350000 nM
CC1=C[C@]23C(=O)[C@@H](C=C(CO)[C@@H](O)[C@]2(O)[C@H]1OC(=O)c1c(C)cccc1Cl)[C@H]1[C@@H](C[C@H]3C)C1(C)C [Compound 328, Ingenol 3-(2-chloro-6-methyl-benzoate)]	< 20 nM		< 150000 nM
COc1cc(C)c(C(=O)O[C@H]2C(C)=C[C@]34C(=O)[C@@H](C=C(CO)[C@@H](O)[C@]23O)[C@H]2[C@@H](C[C@H]4C)C2(C)C)c(OC)c1 [Compound 329, Ingenol 3-(2,4-dimethoxy-6-methyl-benzoate)]	< 20 nM		< 150000 nM
COc1cccc(N)c1C(=O)O[C@H]1C(C)=C[C@]23C(=O)[C@@H](C=C(CO)[C@@H](O)[C@]12O)[C@H]1[C@@H](C[C@H]3C)C1(C)C [Compound 334, Ingenol 3-(2-amino-6-methoxy-benzoate)]	20 to 100 nM	20 to 100 nM	
CC(=O)Nc1cccc(C)c1C(=O)O[C@H]1C(C)=C[C@]23C(=O)[C@@H](C=C(CO)[C@@H](O)[C@]12O)[C@H]1[C@@H](C[C@H]3C)C1(C)C [Compound 337, Ingenol 3-(2-acetylamino-6-methyl-benzoate)]	> 100 nM	> 100 nM	
CC1=C[C@]23C(=O)[C@@H](C=C(CO)[C@@H](O)[C@]2(O)[C@H]1OC(=O)c1c(C)cccc1NC(=O)C(C)C)[C@H]1[C@@H](C[C@H]3C)C1(C)C [Compound 338, Ingenol 3-(2-methyl-6-(2-methylpropanoylamino)-benzoate)]	> 100 nM	> 100 nM	
CC1=C[C@]23C(=O)[C@@H](C=C(CO)[C@@H](O)[C@]2(O)[C@H]1OC(=O)C1C(C)(C)C1(C)C)[C@H]1[C@@H](C[C@H]3C)C1(C)C [Compound 344, Ingenol 3-(2,2,3,3-tetramethylcyclopropylcarboxylate)]	< 20 nM	< 20 nM	
